Molecules are shown by their SMILES.

The data set is described as follows: stability of halide-free glucosamine at ambient temperature and/or the atmosphere. It is filed as physicochemical.

For the compound `N[C@H]1C(O)O[C@H](CO)[C@@H](O)[C@@H]1O` (some centres unmarked) [halide-free glucosamine, glucosamine], the hygroscopicity result was “quite hygroscopic”. The stability on storage entry (subjected to ambient temperature and/or to the atmosphere) was “will decompose over a period of time”.

(Values after patent US7662802B2, “Halide-free glucosamine-acidic drug complexes” (Gluconova, LLC, priority 2004, dated 2010).)
